This note sets out measurements from US20230265151A1, “GIP/GLP1 CO-AGONIST COMPOUNDS” (priority 2020, published 2023).

Like-named read-outs stand apart in the source and are kept apart here.

Holding throughout (assay type): cell-based
Experiment [1] addresses T1, hGCGR (Homo sapiens, UniProt P47871).
T1 construct: expressed in transfected cells
Briefly: Functional cAMP formation (HTRF) in HEK-293 clonal cells expressing hGCGR, 0.1% bovine casein, without or with 1.0% human serum albumin. Conditions: geometric mean. An outline of the steps: (§1)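 Cells were stimulated with peptide for 30 min at 37° C, then lysed in buffer carrying cAMP-d2 and anti-cAMP Eu3+-cryptate for a competitive HTRF read after at least 60 min at room temperature. The 665/620 nm ratio was converted to nM cAMP against a standard curve.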

Experiment [2] addresses T2, hGIPR (Homo sapiens, UniProt P48546).
T2 construct: expressed in transfected cells
T2 sequence (P48546 22-466): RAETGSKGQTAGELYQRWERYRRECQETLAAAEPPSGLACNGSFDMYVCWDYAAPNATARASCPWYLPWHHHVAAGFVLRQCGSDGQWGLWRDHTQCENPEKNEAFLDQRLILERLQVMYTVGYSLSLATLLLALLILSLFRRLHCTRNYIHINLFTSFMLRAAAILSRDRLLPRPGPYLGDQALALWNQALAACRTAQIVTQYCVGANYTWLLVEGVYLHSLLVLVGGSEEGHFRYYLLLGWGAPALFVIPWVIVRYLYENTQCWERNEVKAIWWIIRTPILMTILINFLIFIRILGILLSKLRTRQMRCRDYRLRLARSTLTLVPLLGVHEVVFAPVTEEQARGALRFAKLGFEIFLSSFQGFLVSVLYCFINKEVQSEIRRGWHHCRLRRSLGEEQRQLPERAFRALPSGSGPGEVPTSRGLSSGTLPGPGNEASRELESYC
Briefly: Functional cAMP formation (HTRF) in HEK-293 clonal cells expressing hGIPR, 0.1% bovine casein, without or with 1.0% human serum albumin. Conditions: for EC50: geometric mean. An outline of the steps: as §1

Experiment [3] addresses hGLP-1R (Homo sapiens, UniProt P43220). Briefly: Functional cAMP formation (HTRF) in HEK-293 clonal cells expressing hGLP-1R, 0.1% bovine casein, without or with 1.0% human serum albumin. Also noted: expressed in transfected cells. The settings on record: for EC50: geometric mean; for Emax: read-out: hGLP-1R Emax, % ± SEM. The method, boiled down:
as §1

Setting [4] is: hGCGR EC50, nM (SEM, n), cAMP, incubated at 37° C., 0.1% bovine casein (no human serum albumin).
Setting [5] is: hGLP-1R EC50, nM (SEM, n), cAMP, incubated at 37° C., 0.1% bovine casein (no human serum albumin).
Where [6] appears, read: 0.1% bovine casein and 1.0% human serum albumin, 37° C., read-out: hGCGR EC50, nM (SEM, n).
[7] abbreviates: cAMP, incubated at 37° C., 0.1% bovine casein (no human serum albumin), read-out: hGCGR EC50, nM (SEM, n).
Where [8] appears, read: HEK293, 0.1% bovine casein and 1.0% human serum albumin, 37° C., percent of maximal response to GIP(1-42)NH2, read-out: hGIPR Emax, % ± SEM.
Where [9] appears, read: 0.1% bovine casein and 1.0% human serum albumin, 37° C., read-out: hGLP-1R EC50, nM (SEM, n).
[10] abbreviates: HEK293, 0.1% bovine casein and 1.0% human serum albumin, 37° C., percent of maximal response to GLP-1(7-36)NH2.
Where [11] appears, read: HEK293, percent of maximal response to GLP-1(7-36)NH2, 37° C., 0.1% bovine casein, arithmetic mean.

hGLP-1R, sequence (P43220 24-463): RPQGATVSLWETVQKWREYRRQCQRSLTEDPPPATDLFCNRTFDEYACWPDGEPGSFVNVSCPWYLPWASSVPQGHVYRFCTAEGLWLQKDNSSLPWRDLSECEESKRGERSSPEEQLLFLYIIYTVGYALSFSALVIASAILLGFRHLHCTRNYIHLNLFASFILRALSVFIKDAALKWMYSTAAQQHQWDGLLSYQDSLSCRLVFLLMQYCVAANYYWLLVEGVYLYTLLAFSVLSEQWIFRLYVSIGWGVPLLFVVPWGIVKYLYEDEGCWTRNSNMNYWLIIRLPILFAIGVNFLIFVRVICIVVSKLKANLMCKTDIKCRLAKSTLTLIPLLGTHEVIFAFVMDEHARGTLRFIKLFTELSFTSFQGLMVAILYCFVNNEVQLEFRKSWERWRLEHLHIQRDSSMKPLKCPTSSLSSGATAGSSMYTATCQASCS
T1 sequence (P47871 26-477): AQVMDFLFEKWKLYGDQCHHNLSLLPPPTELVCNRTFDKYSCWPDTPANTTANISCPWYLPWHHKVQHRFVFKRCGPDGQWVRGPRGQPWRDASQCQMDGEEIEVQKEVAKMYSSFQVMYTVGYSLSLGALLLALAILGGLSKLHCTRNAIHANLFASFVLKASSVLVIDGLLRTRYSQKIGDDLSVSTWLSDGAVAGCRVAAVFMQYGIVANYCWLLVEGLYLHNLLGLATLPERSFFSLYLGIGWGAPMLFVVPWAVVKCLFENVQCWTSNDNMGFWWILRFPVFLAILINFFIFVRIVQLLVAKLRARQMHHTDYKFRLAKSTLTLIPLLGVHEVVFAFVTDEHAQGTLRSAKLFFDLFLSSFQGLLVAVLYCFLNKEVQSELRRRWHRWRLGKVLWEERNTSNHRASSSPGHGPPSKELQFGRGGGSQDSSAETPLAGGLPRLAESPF

For the molecule `CCCCCCCCCCCC(=O)N[C@@H](CCC(=O)NCCOCCOCC(=O)NCCOCCOCC(=O)NCCCC[C@H](NC(=O)[C@H](CCCN)NC(=O)[C@H](CC(=O)O)NC(=O)[C@H](CC(C)C)NC(=O)[C@](C)(CC(C)C)NC(=O)[C@@H](NC(=O)[C@H](CO)NC(=O)[C@H](Cc1ccncc1)NC(=O)[C@H](CC(=O)O)NC(=O)[C@H](CO)NC(=O)[C@@H](NC(=O)[C@](C)(Cc1ccccc1F)NC(=O)[C@@H](NC(=O)CNC(=O)[C@H](CCC(=O)O)NC(=O)C(C)(C)NC(=O)[C@@H](N)Cc1ccc(O)cc1)[C@@H](C)O)[C@@H](C)O)[C@@H](C)CC)C(=O)N[C@@H](C)C(=O)N[C@@H](CCC(N)=O)C(=O)NC(C)(C)C(=O)N[C@@H](CCC(=O)O)C(=O)N[C@@H](Cc1ccccc1)C(=O)N[C@H](C(=O)N[C@@H](CCCCNC(=O)COCCOCCNC(=O)COCCOCCNC(=O)CC[C@H](NC(=O)CCCCCCCCCCC)C(=O)O)C(=O)N[C@@](C)(Cc1ccc(O)cc1)C(=O)N[C@@H](CC(C)C)C(=O)N[C@H](C(=O)N[C@@H](CCC(=O)O)C(=O)NCC(=O)NCC(=O)N1CCC[C@H]1C(=O)N[C@@H](CO)C(=O)N[C@@H](CO)C(=O)NCC(=O)N[C@@H](C)C(=O)N1CCC[C@H]1C(=O)N1CCC[C@H]1C(=O)N1CCC[C@H]1C(=O)N[C@@H](CO)C(N)=O)[C@@H](C)CC)[C@@H](C)CC)C(=O)O` [Example 138], the EC50 in experiment [1] (setting [4]) is over 9950 nM; in experiment [2] (hGIPR EC50, nM (SEM, n), cAMP, incubated at 37° C., 0.1% bovine casein (no human serum albumin)), 0.0197 nM; in experiment [3] (setting [5]) it was 0.267 nM.

On to `CCCCCCCCCCCCCCCC(=O)N[C@@H](CCC(=O)NCCOCCOCC(=O)NCCOCCOCC(=O)NCCOCCOCC(=O)NCCCC[C@H](NC(=O)CNC(=O)CNC(=O)[C@H](CCC(=O)O)NC(=O)[C@@H](NC(=O)[C@H](CC(C)C)NC(=O)[C@](C)(Cc1ccc(O)cc1)NC(=O)[C@@H](CCC(=O)O)NC(=O)[C@@H](NC(=O)[C@H](Cc1ccccc1)NC(=O)[C@H](CCC(=O)O)NC(=O)C(C)(C)NC(=O)[C@H](CCC(N)=O)NC(=O)[C@H](C)NC(=O)[C@H](CCCCNC(=O)COCCOCCNC(=O)COCCOCCNC(=O)COCCOCCNC(=O)CC[C@H](NC(=O)CCCCCCCCCCCCCCC)C(=O)O)NC(=O)[C@H](CCCN)NC(=O)[C@H](CC(=O)O)NC(=O)[C@H](CC(C)C)NC(=O)[C@](C)(CC(C)C)NC(=O)[C@@H](NC(=O)[C@H](CO)NC(=O)[C@H](Cc1ccncc1)NC(=O)[C@H](CC(=O)O)NC(=O)[C@H](CO)NC(=O)[C@@H](NC(=O)[C@](C)(Cc1ccccc1F)NC(=O)[C@@H](NC(=O)CNC(=O)[C@H](CCC(=O)O)NC(=O)C(C)(C)NC(=O)[C@@H](N)Cc1ccc(O)cc1)[C@@H](C)O)[C@@H](C)O)[C@@H](C)CC)[C@@H](C)CC)[C@@H](C)CC)C(=O)N[C@@H](CO)C(=O)N[C@@H](CO)C(=O)NCC(=O)N[C@@H](C)C(=O)N1CCC[C@H]1C(=O)N1CCC[C@H]1C(=O)N1CCC[C@H]1C(=O)N[C@@H](CO)C(N)=O)C(=O)O` [Example 31], for which the EC50 in experiment [1] (setting [6]) was over 9950 nM; in experiment [1] (setting [7]) it was over 9950 nM; in experiment [2] (0.1% bovine casein and 1.0% human serum albumin, 37° C., read-out: hGIPR EC50, nM (SEM, n)) it was 0.147 nM; in experiment [3] (setting [9]), 0.545 nM. The values for the Emax in experiment [2] (setting [8]), in experiment [3] (setting [10]) and in experiment [3] (setting [11]) were 88.9%, 109 ± 7.91% and 91.3 ± 16.1%, respectively.

For the molecule `CC[C@H](C)[C@H](NC(=O)[C@H](CC(C)C)NC(=O)[C@](C)(Cc1ccc(O)cc1)NC(=O)[C@@H](CCC(=O)O)NC(=O)[C@@H](NC(=O)[C@H](Cc1ccccc1)NC(=O)[C@H](CCC(=O)O)NC(=O)C(C)(C)NC(=O)[C@H](CCC(N)=O)NC(=O)[C@H](C)NC(=O)[C@H](CCCCNC(=O)COCCOCCNC(=O)COCCOCCNC(=O)CC[C@H](NC(=O)CCCCCCCOc1ccc(C(=O)O)cc1)C(=O)O)NC(=O)[C@H](CCCN)NC(=O)[C@H](CC(=O)O)NC(=O)[C@H](CC(C)C)NC(=O)[C@](C)(CC(C)C)NC(=O)[C@@H](NC(=O)[C@H](CO)NC(=O)[C@H](Cc1ccncc1)NC(=O)[C@H](CC(=O)O)NC(=O)[C@H](CO)NC(=O)[C@@H](NC(=O)[C@](C)(Cc1ccccc1F)NC(=O)[C@@H](NC(=O)CNC(=O)[C@H](CCC(=O)O)NC(=O)C(C)(C)NC(=O)[C@@H](N)Cc1ccc(O)cc1)[C@@H](C)O)[C@@H](C)O)[C@@H](C)CC)[C@@H](C)CC)C(=O)N[C@@H](CCC(=O)O)C(=O)NCC(=O)NCC(=O)N[C@@H](CCCCNC(=O)COCCOCCNC(=O)COCCOCCNC(=O)CC[C@H](NC(=O)CCCCCCCOc1ccc(C(=O)O)cc1)C(=O)O)C(=O)N[C@@H](CO)C(=O)N[C@@H](CO)C(=O)NCC(=O)N[C@@H](C)C(=O)N1CCC[C@H]1C(=O)N1CCC[C@H]1C(=O)N1CCC[C@H]1C(=O)N[C@@H](CO)C(N)=O` [Example 126], the results for the EC50 in experiment [1] (setting [4]) and in experiment [3] (setting [5]) were over 9950 nM and 1.69 nM, respectively. Besides, the Emax in experiment [2] (HEK293, read-out: hGIPR Emax, % ± SEM, percent of maximal response to GIP(1-42)NH2, 37° C., 0.1% bovine casein, arithmetic mean) turned out to be 91.8%.

Regarding `CC[C@H](C)[C@H](NC(=O)[C@H](CC(C)C)NC(=O)[C@](C)(Cc1ccc(O)cc1)NC(=O)[C@@H](CCC(=O)O)NC(=O)[C@@H](NC(=O)[C@H](Cc1ccccc1)NC(=O)[C@H](CCC(=O)O)NC(=O)C(C)(C)NC(=O)[C@H](CCC(N)=O)NC(=O)[C@H](C)NC(=O)[C@H](CCCCNC(=O)COCCOCCNC(=O)COCCOCCNC(=O)CCCCCCCCCCCCC(=O)O)NC(=O)[C@H](CCCN)NC(=O)[C@H](CC(=O)O)NC(=O)[C@H](CC(C)C)NC(=O)[C@](C)(CC(C)C)NC(=O)[C@@H](NC(=O)[C@H](CO)NC(=O)[C@H](Cc1ccncc1)NC(=O)[C@H](CC(=O)O)NC(=O)[C@H](CO)NC(=O)[C@@H](NC(=O)[C@](C)(Cc1ccccc1F)NC(=O)[C@@H](NC(=O)CNC(=O)[C@H](CCC(=O)O)NC(=O)C(C)(C)NC(=O)[C@@H](N)Cc1ccc(O)cc1)[C@@H](C)O)[C@@H](C)O)[C@@H](C)CC)[C@@H](C)CC)C(=O)N[C@@H](CCC(=O)O)C(=O)NCC(=O)NCC(=O)N1CCC[C@H]1C(=O)N[C@@H](CO)C(=O)N[C@@H](CO)C(=O)NCC(=O)N[C@@H](C)C(=O)N1CCC[C@H]1C(=O)N1CCC[C@H]1C(=O)N1CCC[C@H]1C(=O)N[C@@H](CO)C(=O)N[C@@H](CCCCNC(=O)COCCOCCNC(=O)COCCOCCNC(=O)CCCCCCCCCCCCC(=O)O)C(N)=O` [Example 221], the EC50 was over 9950 nM in experiment [1] (setting [6]); over 9950 nM in experiment [1] (setting [7]); 0.0279 nM in experiment [2] (cAMP, incubated at 37° C., 0.1% bovine casein (no human serum albumin), read-out: hGIPR EC50, nM (SEM, n)); 17.9 nM in experiment [3] (setting [9]). Also, the Emax in experiment [2] (setting [8]) came to 67.4%; in experiment [2] (HEK293, percent of maximal response to GIP(1-42)NH2, 37° C., 0.1% bovine casein, arithmetic mean, read-out: hGIPR Emax, % ± SEM), 81.8%; in experiment [3] (setting [10]) it was 92.3%; in experiment [3] (setting [11]), 83%.
